The values that follow come from patent US20170157301A1, “LEOLIGIN DERIVATIVES AS SMOOTH MUSCLE CELL PROLIFERATION INHIBITORS” (TECHNISCHE UNIVERSITAET WIEN, priority 2014, published 2017).

The test system of the assay is SMCs in relation to ECs. In words: activity ratio: efficiency towards SMCs / efficiency towards ECs. The class given is cell-based. The conditions noted are these: activity ratio class; order in Table 1 follows the calculated values. The method, then:
For determination of vascular SMC proliferation, 0.5×10^4 viable rat aortic SMCs per well were seeded in SMC growth medium (DMEM/F12 medium with 20% serum, 30 μg/mL Gentamicin and 15 ng/mL Amphotericin) in 96-well plates. 24 h later, the medium was removed, the cells were washed once with SMC starvation medium (DMEM/F12 medium with 0.1% serum, 0.2% BSA, 30 μg/mL Gentamicin and 15 ng/mL Amphotericin) and incubated in starvation medium for further 24 h.
The quiescent cells were then pretreated for 30 min with the test compounds and induced to proliferate with 20 ng/mL platelet-derived growth factor (PDGF). Unstimulated cells were utilized for normalization and estimation of the basal level of proliferation. The final concentration of the solvent vehicle, dimethyl sulfoxide (DMSO), was the same (0.1%) in all wells. 48 h later, the SMC proliferation was quantified by resazurin dye conversion for 2 h as previously described (H. Joa et al., J. Nat. Prod. 74(6), 1513-6 (2011)).
For determination of endothelial cell proliferation, 0.5×10^4 HUVECtert immortalized human umbilical vein endothelial cells (H. B. Schiller et al., Mol. Biol. Cell. 20(3), 745-756 (2009)) were seeded in 96-well plates for 24 h in HUVEC Complete Medium (EBM™ growth medium supplemented with 10% fetal bovine serum, EBM™ SingleQuots (Lonza, Basel, Switzerland), 100 U/mL benzylpenicillin, 100 μg/mL streptomycin, and 1% amphotericin). Afterwards, the medium was exchanged with fresh HUVEC Complete Medium and cells were treated with the indicated compounds for 48 h. After the end of the incubation period, the medium was removed, the cells were washed once with 200 μL/well PBS, and treated with 150 μL HUVEC Complete Medium containing 10 μg/mL resazurin. 2 h later, the fluorescence was measured at a wavelength of 580 nm, with excitation wavelength 535 nm in a 96-well plate reader (Tecan GENios Pro; Tecan Group Ltd., Mannedorf, Switzerland).
In every case, the percentage of viable cells was subtracted from 1, in order to obtain a measure of efficiency of the test compounds towards each particular type of cells, and subsequently, the efficiency quotient towards SMCs and ECs was calculated and taken as the “activity ratio” and thus as a measure of selective efficiency of each test compound towards SMCs in relation to ECs. For example, the synthetic Leoligin with the bio ID 2418 prepared in Comparative Example 27 as compound 10-22 gave the following results:
Due to the usual fluctuations in determining surviving cells, which amount to approximately ±10%, and due to the relatively strong resulting fluctuations in calculating quotients—especially if the inhibitory effect of said novel compounds towards ECs is very poor—said threshold value of 1.50 for the activity ratio, as already mentioned above, was introduced.
In the following, a table listing every compound prepared in examples and comparative Examples for which an activity ratio (a.r.) of >1.0 was determined, is given.

Take `COc1cc([C@H]2OC[C@H](Cc3ccc(C(C)(C)C)cc3)[C@@H]2CO)cc(OC)c1OC` [Comparative Example 13, ((2S,3R,4R)-4-(4-(tert-butyl)benzyl)-2-(3,4,5-trimethoxyphenyl)tetrahydrofuran-3-yl)methanol]: the a.r. code entry is on record as “V (1.0 < a.r. < 1.50)”.
For the compound `C/C=C(/C)C(=O)OC[C@H]1[C@@H](Cc2ccc(C(F)(F)F)cc2)CO[C@@H]1c1ccc(OC)c(OC)c1` [Comparative Example 24, (Z)-((2S,3R,4R)-2-(3,4-dimethoxyphenyl)-4-(4-(trifluoromethyl)benzyl)tetra-hydrofuran-3-yl)methyl 2-methylbut-2-enoate], the a.r. code result is given as “V (1.0 < a.r. < 1.50)”.
For the compound `C/C=C(/C)C(=O)OC[C@H]1[C@@H](Cc2ccc(OC)c(OC)c2)CO[C@@H]1c1ccc(F)cc1` [Comparative Example 26, (Z)-((2S,3R,4R)-4-(3,4-dimethoxybenzyl)-2-(4-fluorophenyl)tetrahydrofuran-3-yl)methyl 2-methylbut-2-enoate], the a.r. code entry is on record as “V (1.0 < a.r. < 1.50)”.
Take `C/C=C(/C)C(=O)OC[C@H]1[C@@H](Cc2ccc(OC)c(OC)c2)CO[C@@H]1c1ccc(OC)cc1` [Comparative Example 28, (Z)-((2S,3R,4R)-4-(3,4-dimethoxybenzyl)-2-(4-methoxyphenyl)tetrahydrofuran-3-yl)methyl 2-methylbut-2-enoate]: the a.r. code result is listed as “V (1.0 < a.r. < 1.50)”.
Under `C/C=C(/C)C(=O)OC[C@H]1[C@@H](Cc2ccc(OC)cc2)CO[C@@H]1c1ccccc1` [Comparative Example 29, (Z)-((2S,3R,4R)-4-(4-methoxybenzyl)-2-phenyltetrahydrofuran-3-yl)methyl 2-methylbut-2-enoate] stands “V (1.0 < a.r. < 1.50)”; under `C/C=C(/C)C(=O)OC[C@H]1[C@@H](Cc2ccc(OC)cc2)CO[C@@H]1c1ccc(F)cc1` [Comparative Example 30, (Z)-((2S,3R,4R)-2-(4-fluorophenyl)-4-(4-methoxybenzyl)tetrahydrofuran-3-yl)-methyl 2-methylbut-2-enoate], “V (1.0 < a.r. < 1.50)”.
Consider `C/C=C(/C)C(=O)OC[C@H]1[C@@H](Cc2ccccc2)CO[C@@H]1c1cc(OC)c(OC)c(OC)c1` [Comparative Example 31, (Z)-((2S,3R,4R)-4-benzyl-2-(3,4,5-trimethoxyphenyl)tetrahydrofuran-3-yl)-methyl 2-methylbut-2-enoate], for which the a.r. code entry is “V (1.0 < a.r. < 1.50)”.
For `C/C=C(/C)C(=O)OC[C@H]1[C@@H](Cc2ccc(C(F)(F)F)cc2)CO[C@@H]1c1cc(OC)c(OC)c(OC)c1` [Comparative Example 32, (Z)-((2S,3R,4R)-4-(4-(trifluoromethyl)benzyl)-2-(3,4,5-trimethoxyphenyl)-tetrahydrofuran-3-yl)methyl 2-methylbut-2-enoate], the a.r. code result is reported as “V (1.0 < a.r. < 1.50)”.
Regarding `C/C=C(/C)C(=O)OC[C@H]1[C@@H](Cc2ccc(OC)cc2)CO[C@@H]1c1cc(OC)c(OC)c(OC)c1` [Comparative Example 33, (Z)-((2S,3R,4R)-4-(4-methoxybenzyl)-2-(3,4,5-trimethoxyphenyl)tetrahydro-furan-3-yl)methyl 2-methylbut-2-enoate], the a.r. code result was “V (1.0 < a.r. < 1.50)”.
Regarding `C/C=C(/C)C(=O)OC[C@H]1[C@@H](Cc2ccc(C)cc2)CO[C@@H]1c1cc(OC)c(OC)c(OC)c1` [Comparative Example 34, (Z)-((2S,3R,4R)-4-(4-methylbenzyl)-2-(3,4,5-trimethoxyphenyl)tetrahydrofuran-3-yl)methyl 2-methylbut-2-enoate], the a.r. code entry is reported as “V (1.0 < a.r. < 1.50)”.
The value for `C/C=C(\C)C(=O)OC[C@H]1[C@@H](Cc2ccc(OC)c(OC)c2)CO[C@@H]1c1ccc(OC)c(OC)c1` [Comparative Example 35, (E)-((2S,3R,4R)-4-(3,4-dimethoxybenzyl)-2-(3,4-dimethoxyphenyl)tetrahydro-furan-3-yl)methyl 2-methylbut-2-enoate] was “V (1.0 < a.r. < 1.50)”.
Take `COc1ccc(C[C@H]2CO[C@H](c3ccc(OC)c(OC)c3)[C@H]2COC(=O)C2CCCC2)cc1OC` [Comparative Example 36, ((2S,3R,4R)-4-(3,4-dimethoxybenzyl)-2-(3,4-dimethoxyphenyl)tetrahydrofuran-3-yl)methyl cyclopentanecarboxylate]: the a.r. code entry was “V (1.0 < a.r. < 1.50)”.
As to `COc1ccc(C[C@H]2CO[C@H](c3ccc(OC)c(OC)c3)[C@H]2COC(=O)C2CCCCC2)cc1OC` [Comparative Example 37, ((2S,3R,4R)-4-(3,4-dimethoxybenzyl)-2-(3,4-dimethoxyphenyl)tetrahydrofuran-3-yl)methyl cyclohexanecarboxylate], the a.r. code entry is “V (1.0 < a.r. < 1.50)”.
`COc1ccc(C[C@H]2CO[C@H](c3ccc(OC)c(OC)c3)[C@H]2COC(=O)c2ccc3ccccc3c2)cc1OC` [Comparative Example 38, ((2S,3R,4R)-4-(3,4-dimethoxybenzyl)-2-(3,4-dimethoxyphenyl)tetrahydrofuran-3-yl)methyl 2-naphthoate]: the a.r. code entry is reported as “V (1.0 < a.r. < 1.50)”.
In the case of `COc1cc([C@H]2OC[C@H](Cc3ccc(C)cc3)[C@@H]2COC(=O)C2CCCC2)cc(OC)c1OC` [Comparative Example 39, ((2S,3R,4R)-4-(4-methylbenzyl)-2-(3,4,5-trimethoxyphenyl)tetrahydrofuran-3-yl)methyl cyclopentanecarboxylate], the a.r. code result is “V (1.0 < a.r. < 1.50)”.
`COc1ccc([C@H]2OC[C@H](Cc3ccc(C(F)(F)F)cc3)[C@@H]2COC(=O)c2ccccc2C)cc1OC` [Comparative Example 40, ((2S,3R,4R)-2-(3,4-dimethoxyphenyl)-4-(4-(trifluoromethyl)benzyl)tetrahydro-furan-3-yl)methyl 2-methylbenzoate]: the a.r. code entry is recorded as “V (1.0 < a.r. < 1.50)”.
In the case of `COc1ccc(C[C@H]2CO[C@H](c3ccc(OC)c(OC)c3)[C@H]2COC(=O)CC(C)C)cc1OC` [Comparative Example 41, ((2S,3R,4R)-4-(3,4-dimethoxybenzyl)-2-(3,4-dimethoxyphenyl)tetrahydrofuran-3-yl)methyl 3-methylbutanoate], the a.r. code entry is reported as “V (1.0 < a.r. < 1.50)”.
On to `COc1ccc(C[C@H]2CO[C@H](c3ccc(OC)c(OC)c3)[C@H]2COC(=O)CC(C)(C)C)cc1OC` [Comparative Example 42, ((2S,3R,4R)-4-(3,4-dimethoxybenzyl)-2-(3,4-dimethoxyphenyl)tetrahydrofuran-3-yl)methyl 3,3-dimethylbutanoate], for which the a.r. code entry is “V (1.0 < a.r. < 1.50)”.
`COc1ccc(C[C@H]2CO[C@H](c3ccc(F)cc3)[C@H]2COC(=O)CC(C)(C)C)cc1OC` [Comparative Example 43, ((2S,3R,4R)-4-(3,4-dimethoxybenzyl)-2-(4-fluorophenyl)tetrahydrofuran-3-yl)-methyl 3,3-dimethylbutanoate]: the a.r. code entry is “V (1.0 < a.r. < 1.50)”.
As to `CCC(CC)C(=O)OC[C@H]1[C@@H](Cc2ccc(OC)c(OC)c2)CO[C@@H]1c1ccc(OC)c(OC)c1` [Comparative Example 44, ((2S,3R,4R)-4-(3,4-dimethoxybenzyl)-2-(3,4-dimethoxyphenyl)tetrahydrofuran-3-yl)methyl 2-ethylbutanoate], the a.r. code entry is given as “V (1.0 < a.r. < 1.50)”.
Consider `COc1ccc(C[C@H]2CO[C@H](c3ccc(OC)c(OC)c3)[C@H]2COC(=O)C(C)(C)C)cc1OC` [Comparative Example 45, ((2S,3R,4R)-4-(3,4-dimethoxybenzyl)-2-(3,4-dimethoxyphenyl)tetrahydrofuran-3-yl)methyl pivalate], for which the a.r. code entry is on record as “V (1.0 < a.r. < 1.50)”.
As to `COc1ccc(C[C@H]2CO[C@H](c3cc(OC)c(OC)c(OC)c3)[C@H]2COC(=O)C2=CCCCC2)cc1OC` [Comparative Example 46, ((2S,3R,4R)-4-(3,4-dimethoxybenzyl)-2-(3,4,5-trimethoxyphenyl)tetrahydro-furan-3-yl)methyl cyclohex-1-enecarboxylate], the a.r. code entry is listed as “V (1.0 < a.r. < 1.50)”.
The value for `COc1ccc([C@H]2OC[C@H](Cc3ccc(C(C)(C)C)cc3)[C@@H]2CO)cc1OC` [Example 1, ((2S,3R,4R)-4-(4-(tert-butyl)benzyl)-2-(3,4-dimethoxyphenyl)tetrahydrofuran-3-yl)methanol] was “A (a.r. ≧ 1.50)”.
